Consider two compounds from patent publication US20200121665A1, “PPAR GAMMA MODULATORS FOR TREATING CYSTIC DISEASES” (Indiana University Research and Technology Corporation, priority 2013, published 2020).

In data set [1] the test system is PCK rat. Particulars: for Statistics (a): KW % BW, significance compared to control / Statistics (a): Kidney Weight (KW), significance compared to control / KW % BW / Kidney Weight (KW) / LW % BW / Liver % Fibrocystic / Liver Weight (LW): 24 weeks. The text has this: PCK rat animal model of slowly-progressing PKD. The PCK rat is an animal model that has a orthologous genetic mutation to the human autosomal recessive polycystic kidney disease (ARPKD), but has the phenotypic characteristics of human ADPKD, including renal and liver fibrocystic disease. The Pck gene of the rat is an orthologue to the PKHD-1 gene responsible for ARPKD. The animal model develops both kidney and liver fibrocystic diseases, and is slow progressing. […] Only females are used in the study.
Briefly, after weaning, test animals are fed a diet containing increasing doses of a PPARγ modulator, normalized to body weight, and compared to untreated control fed normal diet. A hematocrit is measured to assess the presence or absence of fluid retention. […] The untreated control group fed the same diet without any PPARγ modulators.
Animals are sacrificed and total body weight is recorded. Total kidney weight is recorded, total liver weight is recorded, and heart weight is recorded. Blood is collected via cardiac puncture, and serum and plasma samples are collected. The liver and kidney were embedded in paraffin and transversely sectioned and stained with hematoxylin, and eosin. The percent kidney weight to body weight was calculated. After histology on the kidney, renal cyst volume was determined through point count stereology methods. From the total liver weight, the percent liver to body weight was calculated. Following histology and picrosiruis red staining, the percent fibrosis can be determined through point count stereology methods. Heart weight is determined and the percent heart weight to body weight is calculated to assess heart disease, such as due to fluid retention, a reported side effect associated with PPARγ agonist treatment. Hearts are preserved in 4% paraformaldehyde. Liver enzymes, glucose levels, and ion levels are evaluated using the blood and urine samples.

The test system of data set [2] is PCK rat. The conditions noted are these: 14 week study, 20 mg/kg BW; cited from earlier work.

Where two headings read alike, the source gives them in different places.

Take `CN(CCOc1ccc(CC2SC(=O)NC2=O)cc1)c1ccccn1` (centres unmarked) [Rosiglitazone, rosiglitazone]: in data set [1] (0.04 mg/kg BW diet), the “Statistics (a): KW % BW, significance compared to control” value is reported as “S” and the “Statistics (a): Kidney Weight (KW), significance compared to control” value is listed as “S”. Moreover, in data set [1] (0.04 mg/kg BW diet, n = 8), the “KW % BW” value was 0.95 ± 0.15%, the “Kidney Weight (KW)” value worked out at 3.68 ± 0.14 g, the “LW % BW” value was determined as 7.11 ± 0.27% and the “Liver % Fibrocystic” value is 35.36 ± 3.74%. In data set [1] (0.04 mg/kg BW diet, n = 8), the “Liver Weight (LW)” value stood at 24.23 ± 0.10 g. In data set [1] (0.4 mg/kg BW diet, n = 8), the “KW % BW” value is reported as 1.27 ± 0.08%, the “Kidney Weight (KW)” value turned out to be 4.27 ± 0.22 g, the “LW % BW” value came to 6.50 ± 0.57% and the “Liver % Fibrocystic” value was determined as 36.81 ± 3.61%. In addition, in data set [1] (0.4 mg/kg BW diet, n = 8), the “Liver Weight (LW)” value was 22.05 ± 2.07 g. Further, in data set [1] (4.0 mg/kg BW diet), the “Statistics (a): KW % BW, significance compared to control” value is given as “S” and the “Statistics (a): Kidney Weight (KW), significance compared to control” value was “S”. For the same compound, in data set [1] (4.0 mg/kg BW diet, n = 3), the “KW % BW” value is given as 0.94 ± 0.06%, the “Kidney Weight (KW)” value came to 3.56 ± 0.26 g, the “LW % BW” value was determined as 5.97 ± 1.38% and the “Liver % Fibrocystic” value came out at 36.17 ± 0.38%. The “Liver Weight (LW)” value in data set [1] (4.0 mg/kg BW diet, n = 3) worked out at 22.66 ± 5.39 g. Further, the serum electrolytes result in data set [1] (at any concentration) is “not altered”. Besides, the “test animals died or had to be sacrificed during treatment due to cholangitis” value in data set [1] (high dose group) is listed as 9/12. Also, in data set [1] (rat, in vivo), the glucose entry was “not observed”, the “hematocrits vs control animals” value is reported as “not different from the control animals” and the “side effects (increased body weight or cholangitis)” value is recorded as “no detected side effects”.

As for `CCc1ccc(CCOc2ccc(CC3SC(=O)NC3=O)cc2)nc1` (centres unmarked) [pioglitazone], in data set [2], the “kidney function by serum analysis” value was “well-preserved kidney function” and the “liver enzymes by serum analysis” value is recorded as “increased”.
